pEC50, pIC50, pKi: −log10 of the molar value.
What was measured:
[1] = Ratio of Vmax, rel to Km (FPGS substrate activity) for recombinant human FPGS; format: ADME
[2] = Vmax, rel (FPGS substrate activity) for recombinant human FPGS; format: ADME
[3] = test system: 786-0; test: Cytotoxicity of compound against 786-0 renal cancer cell line; format: functional; conditions: Homo sapiens
[4] = test system: SW-620; test: Cytotoxicity of compound against SW-620 colon cancer cell line; format: functional; conditions: Homo sapiens
[5] = test system: CCRF-CEM; test: Protection of CCRF-CEM human leukemia cells against the growth inhibitory effect of MTX by 5 uM of thymidine at 5000 nM concentration of compound; format: functional
[6] = test system: CCRF-CEM; test: Protection of CCRF-CEM human leukemia cells against the growth inhibitory effect of MTX by 10 uM of hypoxanthine at 5000 nM concentration of compound; format: functional
[7] = test system: CCRF-CEM; test: Protection of CCRF-CEM human leukemia cells against the growth inhibitory effect of MTX by 10 uM of hypoxanthine and 5 uM of thymidine at 5000 nM concentration of compound; format: functional
[8] = target: Thymidylate synthase (Homo sapiens, UniProt P04818); test: Inhibition of human thymidylate synthetase at 37 degree C pH 7.4
[9] = target: Thymidylate synthase (Escherichia coli, UniProt C3SWJ7); test: Inhibition of Escherichia coli thymidylate synthetase at 37 degree C pH 7.4
[10] = target: T1, Thymidylate synthase (Lactobacillus casei, UniProt P00469); test: Inhibition of Lactobacillus casei thymidylate synthetase at 37 degree C pH 7.4; parameters: species or system Lacticaseibacillus casei
T1 sequence (P00469 whole entry): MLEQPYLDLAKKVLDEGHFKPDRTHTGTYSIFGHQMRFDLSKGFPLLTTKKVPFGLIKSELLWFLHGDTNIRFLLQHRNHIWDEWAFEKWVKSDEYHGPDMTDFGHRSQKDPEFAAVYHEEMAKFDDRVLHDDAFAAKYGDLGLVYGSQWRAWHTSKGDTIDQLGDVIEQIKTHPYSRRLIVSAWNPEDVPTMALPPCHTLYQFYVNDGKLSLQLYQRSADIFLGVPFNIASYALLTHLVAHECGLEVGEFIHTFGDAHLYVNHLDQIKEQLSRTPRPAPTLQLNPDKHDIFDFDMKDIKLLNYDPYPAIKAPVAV

[11] = test system: CCRF-CEM; test: Growth inhibitory activity against CCRF-CEM human lymphoblastic leukemia cells; format: functional, cell-based
[12] = test system: CCRF-CEM; test: Growth inhibitory activity against MTX resistant subline of CCRF-CEM human lymphoblastic leukemia cells; format: functional, cell-based
[13] = test system: CCRF-CEM; test: Growth inhibitory activity against resistant CCRF-CEM human lymphoblastic leukemia cells with decreased uptake of MTX; format: functional, cell-based
[14] = test system: SR; test: Cytotoxicity of compound against SR leukemia cell line; format: functional; conditions: Homo sapiens
[15] = test system: HL-60; test: Cytotoxicity of compound aganist HL-60 leukemia cell line; format: functional; conditions: Homo sapiens
[16] = test system: K562; test: Cytotoxicity of compound against […] leukemia cell line; format: functional; conditions: Homo sapiens
[17] = test system: CCRF-CEM; test: Growth inhibitory activity against MTX resistant CCRF-CEM human lymphoblastic leukemia cells with decreased polyglutamylation; format: functional, cell-based
[18] = target: T2, Dihydrofolate reductase (Escherichia coli, UniProt P0ABQ4)
T2 sequence (P0ABQ4 whole entry): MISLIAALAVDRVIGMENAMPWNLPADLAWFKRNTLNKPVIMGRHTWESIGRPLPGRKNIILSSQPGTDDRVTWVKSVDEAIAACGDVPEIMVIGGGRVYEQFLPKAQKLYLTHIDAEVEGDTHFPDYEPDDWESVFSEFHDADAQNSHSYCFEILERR
Description: Inhibition of Escherichia coli dihydrofolate reductase at 37 degree C pH 7.4

[19] = target: T3, Dihydrofolate reductase (Homo sapiens, UniProt P00374)
T3 sequence (P00374 whole entry): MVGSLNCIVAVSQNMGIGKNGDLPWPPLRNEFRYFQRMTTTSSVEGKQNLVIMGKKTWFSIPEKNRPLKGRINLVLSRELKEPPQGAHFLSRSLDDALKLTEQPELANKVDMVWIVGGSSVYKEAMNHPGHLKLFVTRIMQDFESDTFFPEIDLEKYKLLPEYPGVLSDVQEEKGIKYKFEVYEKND
Description: Inhibition of human dihydrofolate reductase at 37 degree C pH 7.4

[20] = target: Dihydrofolate reductase (Lactobacillus casei, UniProt P00381)
Chain of Dihydrofolate reductase (Lactobacillus casei, UniProt P00381) (P00381 whole entry): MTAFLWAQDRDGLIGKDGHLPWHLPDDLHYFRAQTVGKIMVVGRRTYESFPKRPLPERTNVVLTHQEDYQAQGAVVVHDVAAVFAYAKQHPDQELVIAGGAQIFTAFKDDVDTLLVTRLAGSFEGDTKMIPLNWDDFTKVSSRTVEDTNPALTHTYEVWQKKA
Description: Inhibition of Lactobacillus casei dihydrofolate reductase at 37 degree C pH 7.4

Chain of Thymidylate synthase (Escherichia coli, UniProt C3SWJ7) (C3SWJ7 whole entry): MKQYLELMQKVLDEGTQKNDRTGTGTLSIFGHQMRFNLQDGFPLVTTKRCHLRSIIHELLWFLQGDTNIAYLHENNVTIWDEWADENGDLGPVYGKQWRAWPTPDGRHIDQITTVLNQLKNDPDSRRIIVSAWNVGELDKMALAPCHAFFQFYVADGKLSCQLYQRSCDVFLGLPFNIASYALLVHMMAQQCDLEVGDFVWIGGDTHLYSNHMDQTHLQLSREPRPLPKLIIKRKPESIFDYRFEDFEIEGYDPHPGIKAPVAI
Chain of Thymidylate synthase (Homo sapiens, UniProt P04818) (P04818 whole entry): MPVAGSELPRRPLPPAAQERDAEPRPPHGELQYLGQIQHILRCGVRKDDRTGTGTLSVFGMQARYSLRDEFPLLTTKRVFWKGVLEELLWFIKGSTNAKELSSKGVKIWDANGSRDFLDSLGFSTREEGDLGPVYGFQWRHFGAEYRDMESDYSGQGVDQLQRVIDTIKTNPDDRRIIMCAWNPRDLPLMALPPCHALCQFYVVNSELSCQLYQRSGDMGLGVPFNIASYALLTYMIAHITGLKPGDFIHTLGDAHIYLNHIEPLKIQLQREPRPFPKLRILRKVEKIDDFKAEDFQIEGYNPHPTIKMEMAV

Row | SMILES | Ratio [1] | Vmax rel [2] | pIC50 [8] | pIC50 [9] | pIC50 [10] | pEC50 [11] | pEC50 [12] | pEC50 [13] | pEC50 [17] | pIC50 [18] | pIC50 [19] | pIC50 [20] | other results
1 | Nc1nc(N)c2nc(CNc3ccc(C(=O)N[C@@H](CCC(=O)O)C(=O)O)cc3)cnc2n1 [AMINOPTERIN] | 0.19 | 1 |  |  |  |  |  |  |  |  |  |  | 
2 | Nc1nc2[nH]c(CCCCc3ccc(C(=O)N[C@@H](CCC(=O)O)C(=O)O)cc3)cc2c(=O)[nH]1 | 0.086 | 0.54 | < 4.77 | < 3.77 | < 4.00 | 5.96 | 5.52 | 5.09 | 4.74 | 4.00 | < 4.70 | < 3.96 | GI50 [3]: 898 nM; GI50 [4]: 3810 nM; Relative growth [5]: 18%; Relative growth [6]: 85%; Relative growth [7]: 85%; GI50 [14]: 609 nM; GI50 [15]: 6.56 µM; GI50 [16]: 398 nM
3 | Nc1nc(N)c2c(CCCCc3ccc(C(=O)N[C@@H](CCC(=O)O)C(=O)O)cc3)coc2n1 | 0.27 | 0.54 | < 4.74 | < 4.00 | < 4.00 | 6.92 | 5.31 | 6.58 | 5.50 | 4.68 | 4.68 | 5.00 | GI50 [3]: > 100000 nM; GI50 [4]: 78.3 nM; Relative growth [5]: 20%; Relative growth [6]: 21%; Relative growth [7]: 74%; GI50 [14]: 47.8 nM; GI50 [15]: 0.0381 µM; GI50 [16]: 214 nM
4 | Nc1nc2[nH]c(CCCc3ccc(C(=O)N[C@@H](CCC(=O)O)C(=O)O)cc3)cc2c(=O)[nH]1 | 0.63 | 0.57 | < 4.77 | < 3.74 | < 4.00 | 6.34 | 6.07 | 5.36 | 6.33 | 4.66 | < 4.62 | < 3.96 | 
5 | Nc1nc2[nH]cc(CCc3ccc(C(=O)N[C@@H](CCC(=O)O)C(=O)O)cc3)c2c(=O)[nH]1 [PEMETREXED] |  |  |  |  |  |  |  |  |  |  |  |  | pKi [8]: 6.47
6 | Nc1nc(N)c2c(CCCc3ccc(C(=O)N[C@@H](CCC(=O)O)C(=O)O)cc3)coc2n1 |  |  |  |  |  | 7.22 | ≤ 5.34 | 5.98 | 7.08 |  |  | 5.00 | 
7 | Nc1nc(N)c2c(CCc3ccc(C(=O)N[C@@H](CCC(=O)O)C(=O)O)cc3)coc2n1 | 0.07 | 0.65 |  |  |  |  |  |  |  |  |  |  | 

— ChEMBL document CHEMBL1141150, “Synthesis of classical, four-carbon bridged 5-substituted furo[2,3-d]pyrimidine and 6-substituted pyrrolo[2,3-d]pyrimidine analogues as antifolates” (J Med Chem, 2005)
